The source of these data is article PMC11413853, “Discovery of VU6007496: Challenges in the Development of an M1 Positive Allosteric Modulator Backup Candidate” (ACS Chemical Neuroscience, 2024).

Where two headings read alike, the source gives them in different places. A value given as a limit tells only on which side of the number the result lay.

The target of one data set is T1, rat M1 (Rattus norvegicus, UniProt P08482).
T1 construct: expressed in transfected cells; host or cells: CHO (stated in general for all functional cell-based assays)
T1 sequence (P08482 1-460): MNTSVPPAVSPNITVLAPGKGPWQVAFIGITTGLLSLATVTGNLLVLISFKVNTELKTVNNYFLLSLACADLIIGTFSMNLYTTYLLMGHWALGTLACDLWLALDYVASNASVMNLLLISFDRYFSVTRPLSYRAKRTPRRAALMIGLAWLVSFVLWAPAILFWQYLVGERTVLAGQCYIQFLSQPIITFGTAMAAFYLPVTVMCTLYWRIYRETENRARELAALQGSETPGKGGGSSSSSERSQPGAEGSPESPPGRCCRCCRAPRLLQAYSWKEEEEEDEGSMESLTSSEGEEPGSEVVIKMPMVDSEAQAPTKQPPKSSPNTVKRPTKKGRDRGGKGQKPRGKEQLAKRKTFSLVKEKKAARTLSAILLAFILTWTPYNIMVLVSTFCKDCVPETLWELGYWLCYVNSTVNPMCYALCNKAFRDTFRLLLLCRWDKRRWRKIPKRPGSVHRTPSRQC
The data set is described as follows: Calcium mobilization assay, rat M1 (agonist and PAM modes). The data set is classed as cell-based. Particulars: for rM1 PAM AChmax (%) / rM1 Agonist AChmax (%): % ACh max. (Calcium assays in cells follow changes in intracellular calcium, usually with a dye or a luminescent sensor.)

The test system of the next data set is hM2-5. The data set is described as follows: Muscarinic selectivity, human M2-5. It counts as cell-based. Here is the method:
Procedures for Biological Experiments
Calcium mobilization assays:
All functional cell-based assays were performed in stable Chinese Hamster Ovary (CHO) cell lines constitutively expressing human M5 or human M1 receptors. For full muscarinic selectivity, CHO cells expressing human M3, human M2 plus Gqi5 or human M4 plus Gqi5 were used. Cells were plated at 15,000 cells per 20 µL per well in black 384-well, TC-treated, clear-bottomed plates (Greiner) in Ham’s F12 medium supplemented with 10% FBS and 20 mM HEPES. Cells were incubated overnight at 37 °C under 5% CO2. The following day, the medium was removed and replaced with 1.2 µM Fluo-4 AM (Invitrogen) in assay buffer (Hank’s Balanced Salt Solution supplemented with 20 mM HEPES and 2.5 mM Probenecid, pH 7.4) and the cells were incubated for 50 minutes at 37 °C under 5% CO2. Dye was then removed and replaced with 20 µL of fresh assay buffer. Test compounds at a 10 mM concentration in DMSO were serially diluted in DMSO (either 1:3 or 1:5 dilution) to create a 10-point concentration series. The DMSO solutions were then diluted in assay buffer resulting in compound solutions at 2-times the final assay concentration with the highest assay concentration of 30 µM. The compound plate, cell plate, and plates containing EC20 and EC80 acetylcholine concentrations were placed in a Hamamatsu FDSS 6000 or 7000 kinetic imaging plate reader equipped to measure Ex480/Em540 fluorescence. Data were collected at 1 frame per second. After 2 seconds of collecting baseline fluorescence, 20 µL of the compound solutions were added to the cell plate. This was followed by the addition of an EC20 concentration of acetylcholine at 142 seconds. […] The fluorescence signal was collected for a total of 300 seconds. […] Data were imported and analyzed in Dotmatics Informatics software. by normalizing all data in the individual kinetic traces to the initial fluorescence read. The magnitude of each agonist addition was then determined and normalized to the average maximum response. […] The IC50 determined using the EC80 of acetylcholine is the value reported. […]

Data set [1] is described as follows: Rat brain homogenate binding. It counts as in vitro ADME. Particulars: brain homogenate (1:3 brain:DPBS, w/w), pH 7.4, read-out: fu,brain (r). Here is the method: Plasma protein binding and Brain homogenate binding: Determination of fraction unbound (f u) in plasma was conducted in vitro via equilibrium dialysis using HTDialysis (HTD) membrane plates. The top half of the plate was filled with 100 uL of Dubelco’s Phosphate Buffered Saline, pH 7.4 (DPBS). Compounds were diluted into plasma from each species (5 µM final concentration), which was aliquoted in triplicate to the ‘bottom half’ of the prepared HTD plate wells. The HTD plate was sealed and incubated for 6 hours at 37 °C. Following incubation, each well (both top and bottom halves) were transferred (20 µL) to the corresponding wells of a 96-shallow-well (V-bottom) plate. The daughter plates were then matrix-matched (DPBS side wells received equal volume of plasma, and plasma side wells received equal volume of DPBS), and extraction solution (120 µL; acetonitrile containing 50 nM carbamazepine as IS) was added to all wells of both daughter plates to precipitate protein and extract test article. The plates were then sealed and centrifuged (3500 rcf) for 10 minutes at ambient temperature. […]
The unbound fraction (f u) was calculated following the equation below, and mean values for each species were calculated from 3 replicates.
A similar approach was used to determine the degree of brain homogenate binding, which employed the same methodology and procedure with the following modifications: 1) a final compound concentration of 1 μM was used, 2) naïve rat brains were homogenized in DPBS (1:3 composition of brain: DPBS, w/w) using a Mini-Bead Beater™ machine in order to obtain brain homogenate, which was then treated in the same manner as the plasma samples in the previously described plasma protein binding assay. Fraction unbound for both plasma and brain samples was determined using Equation 4. […]
The diluted fraction unbound (fu2) in brain was calculated in the same manner by using brain homogenate rather than plasma. Undiluted fraction unbound for the brain was calculated using […]

Setting [2] is: PAM mode, read-out: rM1 PAM EC50.
The mark [3] stands for this setting: agonist mode, read-out: rM1 Agonist EC50.

Broadly, the EC50 is the midpoint of the concentration-response curve. Turning to `Cn1ccc(-c2ccc(Cc3cc(C(=O)NC4CCOCC4)nc4ccn(C)c34)cc2)n1` [compound 11], the “rM1 PAM AChmax (%)” value on rat M1 (PAM mode) is reported as 91%. The 50% effective concentration (EC50) on rat M1 (setting [2]) is 0.094 µM; at rat M1 (setting [3]) it was 7.34 µM; in the data set with hM2-5, greater than 30 µM. Also, at rat M1 (agonist mode), the “rM1 Agonist AChmax (%)” value is 36%. In data set [1], the fraction unbound at 6 h, 1 µM amounted to 0.038.

With `Cn1ccc(-c2ccc(Cc3cc(C(=O)NC4CCOCC4)nc4ccsc34)cc2)n1` [compound 12], the “rM1 PAM AChmax (%)” value at rat M1 (PAM mode) is reported as 90%. For the same compound, the half-maximal effective concentration (EC50) at rat M1 (setting [2]) is 0.063 µM; on rat M1 (setting [3]), 4.35 µM; in the data set on hM2-5, greater than 30 µM. Also, the “rM1 Agonist AChmax (%)” value at rat M1 (agonist mode) worked out at 32%. Moreover, in data set [1], the fraction unbound at 6 h, 1 µM was 0.011.

As for `Cn1ccc2nc(C(=O)NC3CCOCC3)cc(Cc3ccc(-c4cc[nH]n4)cc3)c21` [compound 24], the “rM1 PAM AChmax (%)” value at rat M1 (PAM mode) is reported as 89%. For the same compound, the EC50 on rat M1 (setting [2]) stood at 0.056 µM; at rat M1 (agonist mode, read-out: rat M1 agonism EC50) it was 3.1 µM. For the same compound, the “rM1 Agonist AChmax (%)” value on rat M1 (agonist mode) turned out to be 48%. In the data set on hM2-5, the “activity on human M2–5” value is “inactive”. For the same compound, in data set [1], the fraction unbound at 6 h, 1 µM is 0.025.
